According to US8518959B2, “Quinoxaline derivatives as antitumor agents” (Prolexys Pharmaceuticals, Inc., priority 2005, dated 2013):

Assays:
[1] = system: HT-1080 xenografts; experiment: HT-1080 tumor treatment study; format: in vivo, mouse; settings: nude mice, 50 or 100 mg/Kg QD×5 days IP
Experimental: • Nude Balb/c (Nu/Nu strain, Charles River Laboratories), female, 5-6 week old (˜20 g average body weight). Formulation of Test Articles:
Both compounds were formulated in an identical manner. For the 100 mg/kg dose level, each compound was delivered at a concentration of 10.0 mg/ml, in an injection volume of 0.2 ml. For the 50 mg/kg dose level, each compound was delivered at a concentration of 5.0 mg/ml, in an injection volume of 0.2 ml. For both dose levels, the vehicle contained 0.025% Tween-80, 0.01% benzyl alcohol, 35 mM acetic acid (HOAc), 100 mM potassium phosphate buffer, and 32 mM sucrose, pH 6.5.
• A: PRLX compound 6@100 mg/Kg, QD×5 days, IP, n=8 • B: PRLX compound 6@50 mg/Kg, QD×5 days, IP, n=8 • C: PRLX compound 5@100 mg/Kg, QD×5 days, IP, n=8 • D: PRLX compound 5@50 mg/Kg, QD×5 days, IP, n=8 • E: Vehicle Control, QD×5 days, IP, n=8 • F: Untreated Control, n=8 Treatment Schedule: […]
Starting on Day 1, all animals were weighed, and tumor dimensions (length (L) and width (W)) were measured, every other day. […]
The resulting tumor volume values were averaged for each study group for each time point, and were then plotted against time. Variance was expressed as standard error of the mean (±SEM).

[2] = system: PANC-1 xenografts; experiment: PANC-1 tumor treatment study; format: in vivo, mouse; settings: nude mice, once a day for five consecutive days
Experimental: The experimental plan for the PANC-1 study was essentially identical to that of the HT-1080 study outlined above in Example 10 with the following exceptions: approximately 3040 mg fragment of passaged PANC-1 tumor tissue was implanted subcutaneously in the right flank of an immunodeficient nude mouse. Tumor growth was monitored daily and when the tumors reached approximately 100 mm^3, animals harboring similarly sized tumors were group matched and compound dosing was initiated. Administration of compound 5 occurred once a day for five consecutive days at the doses listed below. In the PANC-1 xenografts, gemcitabine, administered at the maximum tolerated dose for the model, was used as a control. The gemcitabine regimen was 180 mg/kg […] on every third day over a period of 9 days.

[3] = system: BJ-TERT/LT/ST/RAS^V12 cells; experiment: Nuclear morphology assay; format: cell-based, human; settings: fluorescence microscopy, 18 hours
Source text: Applicants sought to characterize the type of cell death induced by CPT and erastin in tumorigenic BJ-TERT/LT/ST/RAS^V12 cells. […] To determine whether erastin or CPT induces apoptosis in their system, Applicants monitored the nuclear morphology of CPT- and erastin-treated tumorigenic cells using fluorescence microscopy. […] Since nuclear morphological change is required of apoptotic cells, Applicants conclude that cell death induced by erastin is non-apoptotic. […] Additionally, nuclei remained intact in erastin-treated tumor cells (FIG. 9).
200,000 tumorigenic BJ-TERT/LT/ST/RAS^V12 cells were seeded in 2 mL on glass coverslips in each well of a six-well dish, treated with nothing (NT), 9 μM erastin or 1.1 μM camptothecin (CPT) in growth medium for 18 hours while incubating at 37° C. with 5% CO2. Nuclei were stained with 25 μg/mL Hoechst 33342 (Molecular Probes) and viewed using an oil immersion 100× objective on a fluorescence microscope.

[4] = system: BJ primary cells; experiment: Calcein AM viability assay, dilution series; format: cell-based, human
Source text: (§1) Described here is work carried out to identify compounds with increased potency or activity in the presence of hTERT, LT, ST, E6, E7 or RAS^V12. Although the work described herein made use of hTERT, LT, ST, E6, E7 and RAS^V12 as transforming genes, future studies can make use of a wide variety of cancer-associated alleles using this methodology in order to define the signaling networks that involve many oncogenes and tumor suppressors. Engineered cell lines with these genetic elements were used to screen 23,550 compounds, including 20,000 compounds from a combinatorial library, 1,990 compounds from the National Cancer Institute diversity collection, and 1,540 biologically active known compounds that were selected and purchased by Applicant and formatted into a screenable collection. […] Cell viability was measured using the dye calcein acetoxymethyl ester (calcein AM) (Wang et al., 1993, Hum. Immunol. 37, 264-270), which is a non-fluorescent compound that freely diffuses into cells. […]
(§2) Calcein acetoxylmethyl ester (AM) is a cell membrane-permeable, non-fluorescent compound that is cleaved by intracellular esterases to form the anionic, cell-impermeable, fluorescent compound calcein. […] Total fluorescence intensity in each well was recorded on a Packard Fusion platereader, and converted to a percent inhibition of signal by subtracting the instrument background and dividing by the average signal obtained when cells were not treated with any compound. […]
(§3) Mean RFU (relative fluorescence units) for untreated cells was calculated by averaging columns 1, 2, and 23 (wells with cells but lacking compounds). The calcein background was calculated by averaging column 24 (wells with calcein, but lacking cells). Percentage inhibition of each well was calculated as [1−(RFU−calcein control)/(untreated cell−calcein control)*100]. […]

[5] = system: BJ-TERT/LT/ST/RAS^V12 tumorigenic cells; experiment: Calcein AM viability assay, dilution series; format: cell-based, human; settings: ST- and RAS^V12-dependent
Source text: as §1, §2, §3

| SMILES | Antitumor effect in HT-1080 xenografts [1] | Antitumor effect in PANC-1 xenografts [2] | other results |
| --- | --- | --- | --- |
| CCOc1ccccc1-n1c(CN2CCNCC2)nc2ccccc2c1=O [Compound 5, 3-(2-ethoxyphenyl)-2-(piperazin-1-ylmethyl)quinazolin-4(3H)-one] | induction of robust tumor regression | induction of tumor regression | – |
| CC[C@@]1(O)C(=O)OCc2c1cc1n(c2=O)Cc2cc3ccccc3nc2-1 [Camptothecin] | – | – | Type of cell death / nuclear morphology [3]: karyorhexis and margination of chromatin were clearly visible |
| CCOc1ccccc1-n1c(C(C)N2CCNCC2)nc2ccccc2c1=O (centres unmarked) [Compound 6] | induction of tumor growth inhibition | induction of tumor growth inhibition | – |
| C=C1[C@@H](O)[C@@H]2O[C@]3(CC[C@H](/C=C/[C@@H](C)[C@@H]4CC(C)=C[C@@]5(O[C@H](C[C@@](C)(O)C(=O)O)CC[C@H]5O)O4)O3)CC[C@H]2O[C@@H]1[C@@H](O)C[C@H](C)[C@H]1O[C@@]2(CCCCO2)CC[C@H]1C [okadaic acid] | – | – | Sensitization of BJ primary cells to camptothecin ([4]; okadaic acid 3.4 nM with camptothecin): renders BJ cells sensitive to camptothecin; Effect on calcein AM viability staining of BJ cells ([4]; okadaic acid alone at 3.4 nM): no effect on its own |
| CCOc1ccccc1-n1c(C(C)N2CCN(C(=O)COc3ccc(Cl)cc3)CC2)nc2ccccc2c1=O (centres unmarked) [Erastin] | – | – | Time to irreversible cell death [5]: 12 to 24 h |
